Experimental data reported in patent publication US8778966B2, “Quinolinone derivatives as PARP and tank inhibitors” (Janssen Pharmaceutica, NV, priority 2007, dated 2014).

What was measured:
TANK-2 enzyme = biological target: T1, TANK-2 enzyme (Homo sapiens, UniProt Q9H2K2); test: In vitro Scintillation Proximity Assay (SPA) for TANK-2 inhibitory activity; assay type: biochemical; details: read-out: in vitro SPA assay TANK-2 pIC50 (converted)
T1 construct: made in house
T1 sequence (Q9H2K2 1-1166): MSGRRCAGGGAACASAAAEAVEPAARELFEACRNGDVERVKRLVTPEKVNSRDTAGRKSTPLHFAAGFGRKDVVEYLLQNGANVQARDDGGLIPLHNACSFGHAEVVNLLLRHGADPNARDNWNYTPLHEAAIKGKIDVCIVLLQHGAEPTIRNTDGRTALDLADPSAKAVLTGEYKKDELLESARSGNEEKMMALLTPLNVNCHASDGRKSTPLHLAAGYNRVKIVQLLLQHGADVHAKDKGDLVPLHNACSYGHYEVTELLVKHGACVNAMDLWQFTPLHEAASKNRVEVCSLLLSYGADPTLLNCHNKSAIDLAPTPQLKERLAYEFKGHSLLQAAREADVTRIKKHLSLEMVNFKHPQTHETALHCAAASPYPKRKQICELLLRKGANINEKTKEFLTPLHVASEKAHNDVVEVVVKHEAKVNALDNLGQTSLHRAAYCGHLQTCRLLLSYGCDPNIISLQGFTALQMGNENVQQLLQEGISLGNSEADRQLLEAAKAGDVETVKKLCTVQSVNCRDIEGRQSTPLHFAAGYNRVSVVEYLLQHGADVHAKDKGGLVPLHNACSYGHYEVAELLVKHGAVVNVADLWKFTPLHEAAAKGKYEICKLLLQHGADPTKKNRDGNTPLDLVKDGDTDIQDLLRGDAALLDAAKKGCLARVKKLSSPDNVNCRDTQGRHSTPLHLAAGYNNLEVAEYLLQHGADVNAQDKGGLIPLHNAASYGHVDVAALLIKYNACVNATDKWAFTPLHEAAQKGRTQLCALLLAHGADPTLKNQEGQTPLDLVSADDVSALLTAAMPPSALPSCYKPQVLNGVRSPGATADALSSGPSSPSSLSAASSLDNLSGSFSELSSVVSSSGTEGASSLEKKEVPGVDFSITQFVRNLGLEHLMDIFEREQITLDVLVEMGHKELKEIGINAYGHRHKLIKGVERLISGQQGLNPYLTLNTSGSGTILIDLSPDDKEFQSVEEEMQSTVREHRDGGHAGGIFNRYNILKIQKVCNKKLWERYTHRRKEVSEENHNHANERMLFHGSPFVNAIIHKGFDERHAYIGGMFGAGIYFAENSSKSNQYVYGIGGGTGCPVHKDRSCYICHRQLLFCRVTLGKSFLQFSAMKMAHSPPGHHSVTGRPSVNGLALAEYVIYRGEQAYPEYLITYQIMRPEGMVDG
Outline: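 TANK-2 (8 μg/ml final) auto-poly(ADP-ribosyl)ation with [3H]-NAD+/NAD donor was run in Ni flash plates in Tris/HCl pH 7.4 buffer with DTT and MgCl2, 120 min at room temperature, then stopped with excess NAD and scintillation-counted. Blank-corrected cpm was expressed as % of enzyme control, and IC50 was linearly interpolated and reported as pIC50.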

PC3 cells = test: EB1 Comet (microtubule disruption) assay; assay type: cell-based, human; details: Homo sapiens, PC-3, 1 h, 1 hour treatment, read-out: EB1 pLAC (converted)
Outline: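 PC3 human prostate cancer cells exposed to compound for 1 h at 37 °C (0.6% DMSO final), methanol-fixed, immunostained for Eb1 and imaged at 20×. Value is the lowest active concentration (LAC): the concentration at which Eb1 foci are absent in at least 50% of treated cells.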

IC50 (TANK-2 enzyme) [nM] | SMILES | minimal effective concentration (PC3 cells) [µM]
126 | CCc1cc2ccc(C(C)(C#N)Cc3nc(C#N)cc(N(C)C)n3)cc2[nH]c1=O (stereo not shown) [Compound 318] | 0.316
63.1 | CCc1cc2ccc(C(C)(C#N)Cc3cc(C#N)nc(C)n3)cc2[nH]c1=O (stereo not shown) [Compound 319] | 1
200 | CCc1cc2ccc(C(C)(C#N)Cc3cc(N(C)C)nc(N(C)C)n3)cc2[nH]c1=O (stereo not shown) [Compound 320] | 0.316
251 | CCc1cc2ccc(C(C)(C#N)Cc3cc(N(C)C)nc(C)n3)cc2[nH]c1=O (stereo not shown) [Compound 322] | 1
63.1 | CCc1cc2ccc(C(C)(C#N)Cc3cc(C#N)nc(N(C)C)c3)cc2[nH]c1=O (stereo not shown) [Compound 325] | 3.16
200 | CCc1cc2ccc(C(C)(C#N)Cc3c4ccccc4nn3C)cc2[nH]c1=O (stereo not shown) [Compound 347] | 0.562
126 | CCc1cc2ccc(C(C)(C#N)Cc3cc(OC)nc(OC)c3)cc2[nH]c1=O (stereo not shown) [Compound 350] | 1
158 | CCc1cc2ccc(C(C)(C#N)Cc3cc(Cl)nc(OC)c3)cc2[nH]c1=O (stereo not shown) [Compound 351] | 0.1
79.4 | CCc1cc2ccc(C(C)(C#N)Cc3cc(N(C)C)nc(OC)n3)cc2[nH]c1=O (stereo not shown) [Compound 354] | 1
79.4 | CCc1cc2ccc(C(C)(C#N)Cc3cc(Cl)nc(C)n3)cc2[nH]c1=O (stereo not shown) [Compound 365] | 0.316
398 | CCc1cc2ccc(C(C)(C#N)CN3CCC(c4ccccc4)CC3)cc2[nH]c1=O (stereo not shown) [Compound 375] | 0.316
50.1 | CCc1cc2ccc(C(C)(C#N)CN3CCN(c4ccc(C#N)cn4)CC3)cc2[nH]c1=O (stereo not shown) [Compound 377] | 1
251 | CCc1cc2ccc(C(C)(C#N)Cc3cc(Br)cc4c3OCC4)cc2[nH]c1=O (stereo not shown) [Compound 378] | 0.316
2510 | Cc1cc2ccc([C@](C)(C#N)[C@H]3CCc4ccccc43)cc2[nH]c1=O [Compound 387] | 3.16
1260 | Cc1cc2ccc(C(C)(C#N)C3CCc4ccccc43)cc2[nH]c1=O (stereo not shown) [Compound 392] | 0.316
2000 | Cc1cc2ccc(C(C)(C#N)C3CCCc4ccccc43)cc2[nH]c1=O (stereo not shown) [Compound 404] | 0.562

The remaining lines, values behind:

SMILES | IC50 (TANK-2 enzyme) [nM] | minimal effective concentration (PC3 cells) [µM]
CCc1cc2ccc(C(C)(C#N)Cc3cc(F)ccc3F)cc2[nH]c1=O (stereo not shown) [Compound 280] | 126 | 1
CCc1cc2ccc(C(C)(C#N)Cc3ccc(F)c(F)c3)cc2[nH]c1=O (stereo not shown) [Compound 281] | 158 | 0.316
CCc1cc2ccc(C(C)(C#N)Cc3cc(C(F)(F)F)ccc3F)cc2[nH]c1=O (stereo not shown) [Compound 283] | 398 | 1
CCOc1cccc(CC(C)(C#N)c2ccc3cc(CC)c(=O)[nH]c3c2)c1 (stereo not shown) [Compound 285] | 251 | 0.316
CCc1cc2ccc(C(C)(C#N)Cc3cccc(OC)c3F)cc2[nH]c1=O (stereo not shown) [Compound 286] | 200 | 0.562
CCc1cc2ccc(C(C)(C#N)Cc3cc(OC)c(OC)c(OC)c3)cc2[nH]c1=O (stereo not shown) [Compound 289] | 251 | 0.0316
CCc1cc2ccc(C(C)(C#N)Cc3cccc(/C=N/O)c3)cc2[nH]c1=O (stereo not shown) [Compound 299] | 158 | 1
CCc1cc2ccc(C(C)(C#N)CN(C)Cc3ccc(C#N)cc3)cc2[nH]c1=O (stereo not shown) [Compound 300] | 398 | 0.1
CCc1cc2ccc(C(C)(C#N)CNCc3ccc(C#N)cc3)cc2[nH]c1=O (stereo not shown) [Compound 302] | 100 | 1
Cc1cc2ccc(C(C)(C#N)Cc3cccc(Oc4ccccc4)c3)cc2[nH]c1=O (stereo not shown) [Compound 305] | 1580 | 3.16
CCc1cc2ccc(C(C)(C#N)Cc3nc(C#N)cc(OC)n3)cc2[nH]c1=O (stereo not shown) [Compound 313] | 100 | 0.0316
CCc1cc2ccc(C(C)(C#N)Cc3cc(C#N)nc(OC)c3)cc2[nH]c1=O (stereo not shown) [Compound 314] | 25.1 | 1
CCc1cc2ccc(C(C)(C#N)Cc3cc(N(C)C)nc(C#N)n3)cc2[nH]c1=O (stereo not shown) [Compound 317] | 100 | 1
